Experimental data as given in patent US20070166336A1, “Stable and palatable oral liquid sumatriptan compositions” (priority 2005, published 2007).
Where two headings read alike, the source gives them in different places.

What was measured:
[1] = Characterization of unknown oxidation impurity (LC-MS, HPLC); format: physicochemical
Method: HPLC conditions were the same as that for impurity C and D analysis, and the product peaks were injected into an electrospray ionization mass spectrometer.
To confirm whether oxidation of sumatriptan would lead to the formation of this impurity, sumatriptan succinate was incubated with 25% H2O2 for 2 hours and 24 hours followed by LC-MS analysis.
To test the presence of this impurity in sumatriptan succinate procured from different vendors, solid sumatriptan in powder form as well as sumatriptan dissolved in water were analyzed by HPLC.

[2] = Formulation at different pH: impurities after two weeks at 50° C.; format: physicochemical; conditions: unbuffered (self-buffering)
Method: Sumatriptan succinate has a self-buffering capacity due to it being a succinic acid salt.
These formulations were kept on stability studies at 50° C. for two weeks.
Levels of each impurity are expressed as percentage (w/w) of sumatriptan, and RT is the retention time in minutes.

physchem = conditions: thermodynamic from solid
Method: By apparent solubility is meant the solubility of the sumatriptan determined visually. The materials used were sumatriptan succinate and various reagents for preparation of the buffers. Hydrochloric acid was used for preparation of the pH 2 buffer, acetate for preparation of the pH 5 buffer, phosphate for preparation of the pH 7 buffer, and carbonate for the pH 9 buffer. The concentration of the buffers was 0.1 M.
A 1 mL aliquot of each buffer was placed in a glass scintillation vial. To this volume was added a small amount of sumatriptan. Each amount of sumatriptan was weighed on a balance. Weights typically ranged from between 5 and 35 mg. After each new addition of sumatriptan, the vial was shaken and visually inspected to determine if all of the sumatriptan was in solution. When small particles of undissolved sumatriptan appeared, no further amount of sumatriptan was added. These amounts of sumatriptan added before the final addition was added together and were listed as the lower limit of each pH. The upper limit of solubility was taken to be the sum total of sumatriptan added to the buffer when undissolved sumatriptan appeared. […] The diamond symbol in FIG. 1 represents the average value between the lower and upper limit.

[3] = Stability of sumatriptan succinate in water and buffers of pH 2, 5, 7, 9 (HPLC); format: physicochemical; conditions: buffers with a pH of about 2 to 5, one month at 50° C. (additional studies not presented)
Method: After mixing thoroughly, a 1 mL aliquot was removed for high performance liquid chromatography (HPLC) analysis. The remaining volume was then split into a glass tube to be kept at room temperature, and another glass tube to be kept at 50° C. Samples were pulled periodically from the 50° C. tubes for one month and analyzed by HPLC.
As used herein, degradation in percent area by area is that amount of degradation that is the ratio of the sum total of degradation peaks divided by the response factor (sumatriptan's standard curve slope value) multiplied by 100, and not a quantified amount of degradation.

[4] = cited from earlier work
[5] = pH 5
Method: The percent of sumatriptan recovered, i.e., the experimentally determined amount (mg/mL) of sumatriptan divided by the theoretical amount present at each stage, is also provided.
The final stage of the excipient screen was used to establish a compatible preservative. […] Specifically, Stage II samples were removed and split into two tubes each containing 2.5 mL and the remaining solution kept as a control. […] These solutions were then stored at 50° C. for one month and periodically analyzed by HPLC.
The stability and solubility of sumatriptan compositions in acetate buffer with the preservative was also tested. These samples were mixed in a 1:1 ratio.

## CNS(=O)(=O)Cc1ccc2[nH]cc(CCN(C)C)c2c1.O=C(O)CCC(=O)O [Sumatriptan succinate, 3-[2-(dimethylamino)ethyl]-N-methyl-indole-5-methanesulfonamide succinate (1:1)]
[1]; 25% v/v H2O2 solution at room temperature for 2 hours
  oxidation impurity (chromatogram): formation of the oxidation impurity
[1]; aqueous solution at 50° C. for two weeks
  oxidation impurity (HPLC): formed upon incubation
[1]; solid powder at 4° C.
  oxidation impurity (chromatogram): not present
[1]; solid powder at 50° C.
  oxidation impurity (chromatogram): not present
[2]
  pH of solutions: 4.5-5
physchem; aqueous buffer, apparent solubility
  solubility: 100 to 115 mg/mL
physchem; pH 2, simulated gastric fluid, Apparent solubility, Lower Limit
  solubility: 149 mg/mL
physchem; pH 2, simulated gastric fluid, Apparent solubility, Upper Limit
  solubility: 162 mg/mL
physchem; pH 5, aqueous buffer, Apparent solubility, Lower Limit
  solubility: 110 mg/mL
physchem; pH 5, aqueous buffer, Apparent solubility, Upper Limit
  solubility: 120 mg/mL
physchem; pH 7, aqueous buffer, Apparent solubility, Lower Limit
  solubility: 138 mg/mL
physchem; pH 7, aqueous buffer, Apparent solubility, Upper Limit
  solubility: 151 mg/mL
physchem; pH 9, aqueous buffer, Apparent solubility, Lower Limit
  solubility: 138 mg/mL
physchem; pH 9, aqueous buffer, Apparent solubility, Upper Limit
  solubility: 140 mg/mL
[3]
  degradation: 1.5%
[4]; 6 mg subcutaneous injection
  bioavailability: 97%
[4]; 20 mg nasal spray
  bioavailability: 17%
[4]; 50 mg tablet
  Tmax: 2.5 h
[4]; in vivo
  elimination half-life: about 2 hours
[4]; nasal spray
  Tmax: 1 h
[4]; oral administration
  absolute bioavailability: about 14%
[4]; subcutaneous injection
  Tmax: 0.2 h

## HPMC
[5]
  Percent Degradation After 1 month at 50° C.: 0.64%

## PEG 400
[5]
  Percent Degradation After 1 month at 50° C.: 14%

## Tween ™ 80
[5]
  Percent Degradation After 1 month at 50° C.: 0.49%

## Xanthan Gum
[5]
  Percent Degradation After 1 month at 50° C.: 0.07%
